Results as given in patent publication US4237273A, “Bis(nitrosoureido)-polyol derivatives” (Richter Gedeon Vegyeszeti Gyar RT, priority 1977, dated 1980).
Like-named read-outs stand apart in the source and are kept apart here.

Legend:
[1] = test system: Yoshida s.c. sarcoma; assay: Antitumour activity, Yoshida s.c. sarcoma, tumour weight (Table 3); assay type: in vivo, CFY rats; details: from the 2nd day
Procedure: (§1) The leukemia and ascites type tumours were transplanted intraperitoneally, using an amount of 10^5 -10^7 cells, while in the case of solid tumours, small pieces of tumours were implanted subcutaneously with a trocar. Treatment:
(§2) Mice were treated with a volume of 0.1 ml./10 g. body-weight of a suspension of the tested compounds in water containing 2% of Tween-80, while rats were treated with a volume of 0.1 ml./100 g. bodyweight of a suspension of the tested compounds in water containing 5% of Tween-80.
(§3) In the case of solid tumours (Harding-Passey melanoma, S-180 and Yoshida sarcoma) the tumours were removed on the 8 to 14th day, and the inhibition was calculated by the weight of the tumours, using the following formula: [formula]

[2] = test system: BDF1 mice; assay: Acute toxicity (LD50), 21 days observation; assay type: in vivo; details: BDF1 mice of both sexes
Procedure: (§4) Species: BDF1 mice of both sexes
(§5) Treatment: a volume of 0.2 ml./10 g. body weight of a suspension of the tested compounds in water containing 2% of Tween-80 was used.
(§6) Number of animals: 10/dose
(§7) Observation time: 21 days

[3] = test system: Ehrlich ascites carcinoma; assay: Way of activity: mitosis index in Ehrlich ascites carcinoma; assay type: in vivo, Mice; details: i.p. on 6th day, equitoxic doses; for Decrease of the mitosis-index: in 24 hours
Procedure: (§8) Mice, being infected with Ehrlich ascites carcinoma, were treated intraperitoneally on the 6th day after transplantation with equitoxic doses of compounds 1, 2 and 6. The duration of the activity was investigated by determining the total cell number and the way of action by determining the mitosis index* and the thymidine index**. It could be shown that both compounds 1 and 2 inhibit the increase of the total cell number for 35 days, while a similar inhibition of the reference compound 6 lasts only for 17 days. As far as the quality of the activity is concerned, compounds 1 and 2 decrease the mitosis-index and the thymidine index in 24 hours by 90%, while in the case of compound 6 the decrease amounts only to 45 to 50%, and the maximum is reached on the 4th day.
*mitosis index=number of dividing cells/1000 tumour cells

[4] = test system: Ehrlich ascites carcinoma; assay: Duration of activity: total cell number in Ehrlich ascites carcinoma; assay type: in vivo, Mice; details: i.p. on the 6th day after transplantation, equitoxic doses
Procedure: as §8

[5] = test system: L-120 leukemia; assay: Antitumour activity, L-1210 leukemia (Table 2); assay type: in vivo, BDF1 mice; details: for Increase in life span / Recovery (90 day survival): from the 2nd day; for Recovery (90 day survival): animals recovered/treated
Procedure: as §1, §2
(§9) The ascites and leukemia-type tumours were evaluated with the exception of the Rausher leukemia by the increase of the life span and by complete recovery. [formula]
(§10) Recovery=90 days of tumour free life after transplantation.

[6] = test system: Ehrlich acites carcinoma; assay: Antitumour activity, Ehrlich ascites carcinoma (Table 2); assay type: in vivo, CFLP mice; details: from the 2nd day; for Recovery (90 day survival): animals recovered/treated
Procedure: as §1, §2, §9, §10

[7] = test system: P-388 leukemia; assay: Antitumour activity, P-388 leukemia (Table 2); assay type: in vivo, BDF1 mice; details: from the 2nd day; for Recovery (90 day survival): animals recovered/treated
Procedure: as §1, §2, §9, §10

[8] = test system: S-180 s.c. sarcoma; assay: Antitumour activity, S-180 s.c. sarcoma, tumour weight (Table 3); assay type: in vivo, CFLP mice; details: from the 2nd day
Procedure: as §1, §2, §3

[9] = test system: Developed Yoshida s.c. sarcoma; assay: Recovery from developed Yoshida s.c. sarcoma, treated on 6th day (Table 4); assay type: in vivo, CFY rats; details: for Recovery (90 day survival): animals recovered/treated
Procedure: as §1, §2, §10

[10] = test system: Ehrlich ascites carcinoma; assay: Way of activity: thymidine index (3H-thymidine incorporation into DNS) in Ehrlich ascites carcinoma; assay type: in vivo, Mice; details: i.p. on 6th day, equitoxic doses; for Decrease of the thymidine index: in 24 hours
Procedure: as §8
**thymidine index=^3 H-thymidine incorporation into the DNS of the tumour cell.

[11] = test system: Rausher leukemia; assay: Antitumour activity, Rauscher leukemia, spleen weight (Table 3); assay type: in vivo, CFLP mice; details: from the 2nd day
Procedure: as §1, §2, §3
A similar method was applied in the case of the Rauscher leukemia too, but the weight of the spleen was taken, instead of the tumour, in the formula mentioned above.

[12] = test system: NK/Ly ascites lymphoma; assay: Antitumour activity, NK/Ly ascites lymphoma (Table 2); assay type: in vivo, CFLP mice; details: from the 2nd day; for Recovery (90 day survival): animals recovered/treated
Procedure: as §1, §2, §9, §10

[13] = test system: Harding-Passey melanoma; assay: Antitumour activity, Harding-Passey melanoma, tumour weight (Table 3); assay type: in vivo, CFLP mice; details: from the 4th day after transplantation
Procedure: as §1, §2, §3

[14] = Acute toxicity (LD50), 21 days observation; assay type: in vivo; details: mouse, in vivo, BDF1 mice of both sexes
Procedure: as §4, §5, §6, §7

[15] = ip, i.p., read-out: LD50 value i.p.
[16] = po, p.o., read-out: LD50 value p.o.

1,4-bis[3-(2-chloroethyl)-N-nitrosoureido]-1,4-dideoxy-D,L-threitol [Compound 1]
Inhibition (tumour weight) ([1]; 12 mg./kg. 4× i.p.): 99% | Inhibition (tumour weight) ([1]; 24 mg./kg. 1× i.p.): 76% | LD50 value i.p. ([2]; i.p.): 80 mg/kg | LD50 value p.o. ([2]; p.o.): 135 mg/kg | Decrease of the mitosis-index [3]: 90% | Duration of inhibition of the increase of the total cell number [4]: 35 days | Increase in life span ([5]; 7.5 mg./kg. 1× i.p.): 45% | Recovery (90 day survival) ([5]; 7.5 mg./kg. 1× i.p.): 2/8 | Increase in life span ([5]; 12.5 mg./kg. 1× p.o.): 23% | Recovery (90 day survival) ([5]; 12.5 mg./kg. 1× p.o.): 1/8 | Increase in life span ([5]; 12.5 mg./kg. 3× p.o.): 30% | Recovery (90 day survival) ([5]; 12.5 mg./kg. 3× p.o.): 3/8 | Increase in life span ([5]; 15.0 mg./kg. 1× i.p.): 29% | Recovery (90 day survival) ([5]; 15.0 mg./kg. 1× i.p.): 3/8 | Increase in life span ([5]; 25.0 mg./kg. 1× p.o.): 111% | Recovery (90 day survival) ([5]; 25.0 mg./kg. 1× p.o.): 3/8 | Recovery (90 day survival) ([5]; 25.0 mg./kg. 3× p.o.): 6/8 | Increase in life span ([5]; 30.0 mg./kg. 1× i.p.): 230% | Recovery (90 day survival) ([5]; 30.0 mg./kg. 1× i.p.): 7/8 | Increase in life span ([5]; 50.0 mg./kg. 1× p.o.): 84% | Recovery (90 day survival) ([5]; 50.0 mg./kg. 1× p.o.): 4/8 | Recovery (90 day survival) ([6]; 1.5 mg./kg. 4× i.p.): 6/8 | Recovery (90 day survival) ([7]; 12.0 mg./kg. 4× i.p.): 7/8 | Inhibition (tumour weight) ([8]; 3.0 mg./kg. 2× i.p.): 43% | Inhibition (tumour weight) ([8]; 10.0 mg./kg. 4× p.o.): 42% | Inhibition (tumour weight) ([8]; 12.0 mg./kg. 4× i.p.): 80% | Recovery (90 day survival) ([9]; 50 mg./kg. 1× i.p. on 6th day): 5/7 | Decrease of the thymidine index [10]: 90% | Inhibition (spleen weight) ([11]; 10.0 mg./kg. 6× i.p.): 78% | Recovery (90 day survival) ([12]; 1.5 mg./kg. "433" i.p.): 6/8 | Recovery (90 day survival) ([12]; 3.0 mg./kg. 4× i.p.): 8/8 | Increase in life span ([12]; 30.0 mg./kg. 4× p.o.): 89% | Recovery (90 day survival) ([12]; 30.0 mg./kg. 4× p.o.): 1/7 | Inhibition (tumour weight) ([13]; 10.0 mg./kg. 5× p.o.): 96% | Inhibition (tumour weight) ([13]; 24.0 mg./kg. 1× i.p.): 81%

O=NN(CCCl)C(=O)NC[C@@H](O)[C@@H](O)[C@H](O)[C@H](O)CNC(=O)N(CCCl)N=O [Compound 2, 1,6-bis[3-(3-chloroethyl)-N-nitrosoureido]-1,6-dideoxy-D-mannitol]
Inhibition (tumour weight) ([1]; 10 mg./kg. 4× i.p.): 84% | Inhibition (tumour weight) ([1]; 30 mg./kg. 4× p.o.): 75% | LD50 at 504 h [14, 15]: 110 mg/kg | LD50 at 504 h [14, 16]: 250 mg/kg | Decrease of the mitosis-index [3]: 90% | Duration of inhibition of the increase of the total cell number [4]: 35 days | Increase in life span ([5]; 1.0 mg./kg. 4× i.p.): 58% | Recovery (90 day survival) ([5]; 1.0 mg./kg. 4× i.p.): 0/10 | Increase in life span ([5]; 3.0 mg./kg. 4× i.p.): 158% | Recovery (90 day survival) ([5]; 3.0 mg./kg. 4× i.p.): 3/10 | Increase in life span ([5]; 10.0 mg./kg. 4× i.p.): 140% | Recovery (90 day survival) ([5]; 10.0 mg./kg. 4× i.p.): 8/10 | Increase in life span ([6]; 1.0 mg./kg. 5× i.p.): 96% | Recovery (90 day survival) ([6]; 1.0 mg./kg. 5× i.p.): 4/7 | Increase in life span ([7]; 10.0 mg./kg. 4× i.p.): 131% | Recovery (90 day survival) ([7]; 10.0 mg./kg. 4× i.p.): 0/8 | Inhibition (tumour weight) ([8]; 10.0 mg./kg. 5× i.p.): 56% | Inhibition (tumour weight) ([8]; 30.0 mg./kg. 5× p.o.): 51% | Recovery (90 day survival) ([9]; 30 mg./kg. 1× i.p. on 6th day): 4/7 | Decrease of the thymidine index [10]: 90% | Inhibition (spleen weight) ([11]; 10.0 mg./kg. 4× i.p.): 86% | Recovery (90 day survival) ([12]; 0.3 mg./kg. 4× i.p.): 6/7 | Inhibition (tumour weight) ([13]; 10.0 mg./kg. 9× i.p.): 42% | Inhibition (tumour weight) ([13]; 10.0 mg./kg. 9× p.o.): 59%

O=NN(CCCl)C(=O)NCCCl [Compound 6, 1,3-bis(2-chloroethyl)-1-nitrosourea, reference compound]
Inhibition (tumour weight) ([1]; 3 mg./kg. 4× p.o.): 45% | Inhibition (tumour weight) ([1]; 10 mg./kg. 4× i.p.): 95% | Inhibition (tumour weight) ([1]; 10 mg./kg. 4× p.o.): 100% | LD50 at 504 h [14, 15]: 36 mg/kg | LD50 at 504 h [14, 16]: 40 mg/kg | Day on which the maximum decrease of the mitosis-index is reached [3]: 4 days | Duration of inhibition of the increase of the total cell number [4]: 17 days | Increase in life span ([5]; 3.0 mg./kg. 4× i.p.): 40% | Recovery (90 day survival) ([5]; 3.0 mg./kg. 4× i.p.): 0/8 | Increase in life span ([5]; 10.0 mg./kg. 4× i.p.): 405% | Recovery (90 day survival) ([5]; 10.0 mg./kg. 4× i.p.): 6/7 | Increase in life span ([5]; 10.0 mg./kg. 4× p.o.): 106% | Recovery (90 day survival) ([5]; 10.0 mg./kg. 4× p.o.): 1/8 | Increase in life span ([5]; 24.0 mg./kg. 1× p.o.): 48% | Recovery (90 day survival) ([5]; 24.0 mg./kg. 1× p.o.): 0/8 | Activity on L-1210 leukemia on oral application, in words ([5]; oral): only an unsignificant oral activity | Increase in life span ([6]; 3.0 mg./kg. 5× i.p.): 60% | Recovery (90 day survival) ([6]; 3.0 mg./kg. 5× i.p.): 1/6 | Increase in life span ([7]; 3.0 mg./kg. 4× i.p.): 51% | Recovery (90 day survival) ([7]; 3.0 mg./kg. 4× i.p.): 0/8 | Inhibition (tumour weight) ([8]; 10.0 mg./kg. 5× i.p.): 65% | Inhibition (tumour weight) ([8]; 10.0 mg./kg. 5× p.o.): 32% | Recovery (90 day survival) ([9]; 30 mg./kg. 1× i.p. on 6th day): 0/7 | Cure of Yoshida subcutaneous sarcoma, in words ([9]; single dose on the 6th day): inactive | Day on which the maximum decrease of the thymidine index is reached [10]: 4 days | Inhibition (spleen weight) ([11]; 10.0 mg./kg. 6× i.p.): 97% | Recovery (90 day survival) ([12]; 0.3 mg./kg. 4× i.p.): 0/7 | Recovery (90 day survival) ([12]; 1.0 mg./kg. 4× i.p.): 5/7 | Recovery (90 day survival) ([12]; 3.0 mg./kg. 4× i.p.): 7/7 | Inhibition (tumour weight) ([13]; 3.0 mg./kg. 9× i.p.): 64% | Inhibition (tumour weight) ([13]; 3.0 mg./kg. 9× p.o.): 71%
